Test [1] is filed under the species Homo sapiens. The test can be described thus: Selectivity index, ratio of IC50 for inhibition of FLT3 ITD mutant in human MOLM13 cells to IC50 for inhibition of JAK2 V617F mutant in human SET-2 cells. It counts as cell-based.
Test [2] has as its system Receptor-type tyrosine-protein kinase FLT3 (Homo sapiens), P36888 [UNDEFINED MUTATION]. The test is described as follows: Inhibition of FLT3 ITD mutant in human MOLM13 cells assessed as residual activity at 100 nM relative to control. It counts as cell-based. The settings on record: MOLM-13.
In test [3] the target is Receptor-type tyrosine-protein kinase FLT3 (Homo sapiens, UniProt P36888, D835Y). The test is described as follows: Inhibition of recombinant human FLT3 D835Y mutant (564 to end residues) using EAIYAAPFAKKK as substrate at 40 mins in presence of [gamma-33ATP] by scintillation counting based radiometry assay.
The target of test [4] is Tyrosine-protein kinase JAK2 (Homo sapiens, UniProt O60674). The test can be described thus: Inhibition of recombinant human JAK2 (808 to end residues) KTFCGTPEYLAPEVRREPRILSEEEQEMFRDFDYIADWC as substrate measured after 40 mins in presence of [gamm33P]ATP by scintillation counting method.
Test [5] can be described thus: Selectivity index, ratio of IC50 for inhibition of recombinant human JAK3 (781 to end residues) to IC50 for inhibition of recombinant human JAK2 (808 to end residues).
Test [6] addresses Non-receptor tyrosine-protein kinase TYK2 (Homo sapiens, UniProt P29597). The test can be described thus: Inhibition of recombinant human TYK2 (875 to end residues) using GGMEDIYFEFMGGKKK as substrate incubated for 40 mins in presence of [gamma33P]ATP by scintillation counting based radiometry assay.
Test [7] in a line: Selectivity index, ratio of IC50 for inhibition of recombinant human FLT3 D835Y mutant (564 to end residues) to IC50 for inhibition of recombinant human JAK2 (808 to end residues).
Test [8] concerns the target Tyrosine-protein kinase JAK1 (Homo sapiens, UniProt P23458). The test can be described thus: Inhibition of human JAK1 (866 to end residues) using GEEPLYWSFPAKKK as substrate after 40 mins by [gamma-33ATP] radiometric assay.
The target in test [9] is T1, Tyrosine-protein kinase JAK3 (Homo sapiens, UniProt P52333).
T1 sequence (P52333 whole entry): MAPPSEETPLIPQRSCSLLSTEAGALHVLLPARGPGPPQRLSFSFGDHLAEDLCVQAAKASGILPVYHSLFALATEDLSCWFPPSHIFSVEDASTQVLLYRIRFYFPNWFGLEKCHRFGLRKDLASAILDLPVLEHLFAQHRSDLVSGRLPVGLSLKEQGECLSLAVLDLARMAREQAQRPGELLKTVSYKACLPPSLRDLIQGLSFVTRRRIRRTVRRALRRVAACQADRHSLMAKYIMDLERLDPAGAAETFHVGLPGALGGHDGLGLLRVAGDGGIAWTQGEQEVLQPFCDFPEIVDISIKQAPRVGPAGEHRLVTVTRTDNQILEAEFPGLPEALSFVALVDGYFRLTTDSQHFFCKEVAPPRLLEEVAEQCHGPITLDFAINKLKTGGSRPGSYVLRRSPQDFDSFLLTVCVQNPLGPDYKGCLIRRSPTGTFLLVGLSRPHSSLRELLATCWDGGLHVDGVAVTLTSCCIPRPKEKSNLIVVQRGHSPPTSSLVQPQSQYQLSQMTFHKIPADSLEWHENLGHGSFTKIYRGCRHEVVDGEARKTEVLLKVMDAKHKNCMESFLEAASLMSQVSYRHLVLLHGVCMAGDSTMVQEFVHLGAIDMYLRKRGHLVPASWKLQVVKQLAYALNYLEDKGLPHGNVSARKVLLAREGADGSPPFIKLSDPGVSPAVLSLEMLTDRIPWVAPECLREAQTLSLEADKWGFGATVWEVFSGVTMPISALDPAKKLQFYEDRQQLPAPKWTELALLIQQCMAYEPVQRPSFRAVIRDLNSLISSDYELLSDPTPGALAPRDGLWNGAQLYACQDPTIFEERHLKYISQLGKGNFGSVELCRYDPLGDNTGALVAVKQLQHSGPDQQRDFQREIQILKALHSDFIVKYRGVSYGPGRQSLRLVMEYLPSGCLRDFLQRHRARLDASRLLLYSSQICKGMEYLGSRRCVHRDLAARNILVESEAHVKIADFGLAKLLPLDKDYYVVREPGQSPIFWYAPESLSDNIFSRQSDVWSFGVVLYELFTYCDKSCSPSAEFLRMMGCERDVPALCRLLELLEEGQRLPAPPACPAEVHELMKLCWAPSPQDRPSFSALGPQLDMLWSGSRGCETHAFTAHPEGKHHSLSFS
The test is described as follows: Inhibition of recombinant human JAK3 (781 to end residues) using GGEEEEYFELVKKKK as substrate measured after 40 mins in presence of [gamm33P]ATP by scintillation counting method.

Test [10] is described as follows: Selectivity index, ratio of IC50 for inhibition of recombinant human TYK2 (875 to end residues) to IC50 for inhibition of recombinant human JAK2 (808 to end residues).
Test [11] can be described thus: Selectivity index, ratio of IC50 for inhibition of human JAK1 (866 to end residues) to IC50 for inhibition of recombinant human JAK2 (808 to end residues).

Chain of Tyrosine-protein kinase JAK1 (P23458 whole entry): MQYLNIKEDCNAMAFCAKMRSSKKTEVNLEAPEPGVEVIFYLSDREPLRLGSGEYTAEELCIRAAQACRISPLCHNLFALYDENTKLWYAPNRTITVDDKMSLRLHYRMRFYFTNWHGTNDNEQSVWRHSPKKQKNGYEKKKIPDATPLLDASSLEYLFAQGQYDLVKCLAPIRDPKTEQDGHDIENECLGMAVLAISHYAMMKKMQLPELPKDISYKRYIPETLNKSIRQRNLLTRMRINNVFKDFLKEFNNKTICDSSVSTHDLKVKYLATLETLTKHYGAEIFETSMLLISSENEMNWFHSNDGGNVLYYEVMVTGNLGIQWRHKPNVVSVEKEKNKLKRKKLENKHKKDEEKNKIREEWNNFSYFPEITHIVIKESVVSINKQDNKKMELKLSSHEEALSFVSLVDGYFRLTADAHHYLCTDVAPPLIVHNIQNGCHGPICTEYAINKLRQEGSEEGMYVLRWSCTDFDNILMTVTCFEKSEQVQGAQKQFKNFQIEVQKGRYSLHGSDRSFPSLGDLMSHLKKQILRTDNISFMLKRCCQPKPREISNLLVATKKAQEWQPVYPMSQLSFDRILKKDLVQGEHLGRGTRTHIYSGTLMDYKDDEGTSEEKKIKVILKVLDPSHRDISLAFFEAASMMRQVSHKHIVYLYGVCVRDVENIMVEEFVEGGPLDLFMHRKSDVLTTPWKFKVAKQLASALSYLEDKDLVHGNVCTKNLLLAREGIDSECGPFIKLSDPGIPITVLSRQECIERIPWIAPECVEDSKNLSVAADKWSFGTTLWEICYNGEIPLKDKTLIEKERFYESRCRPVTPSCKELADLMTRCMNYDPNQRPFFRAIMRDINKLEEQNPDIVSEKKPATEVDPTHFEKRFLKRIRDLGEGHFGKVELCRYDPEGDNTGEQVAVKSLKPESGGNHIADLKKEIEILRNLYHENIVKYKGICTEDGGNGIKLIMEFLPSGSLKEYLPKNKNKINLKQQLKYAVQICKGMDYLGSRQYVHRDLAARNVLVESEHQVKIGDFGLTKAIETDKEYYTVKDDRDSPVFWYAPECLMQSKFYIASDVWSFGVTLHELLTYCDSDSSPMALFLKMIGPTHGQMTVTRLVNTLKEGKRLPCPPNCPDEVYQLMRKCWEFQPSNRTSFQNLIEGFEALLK
Chain of Tyrosine-protein kinase JAK2 (O60674 whole entry): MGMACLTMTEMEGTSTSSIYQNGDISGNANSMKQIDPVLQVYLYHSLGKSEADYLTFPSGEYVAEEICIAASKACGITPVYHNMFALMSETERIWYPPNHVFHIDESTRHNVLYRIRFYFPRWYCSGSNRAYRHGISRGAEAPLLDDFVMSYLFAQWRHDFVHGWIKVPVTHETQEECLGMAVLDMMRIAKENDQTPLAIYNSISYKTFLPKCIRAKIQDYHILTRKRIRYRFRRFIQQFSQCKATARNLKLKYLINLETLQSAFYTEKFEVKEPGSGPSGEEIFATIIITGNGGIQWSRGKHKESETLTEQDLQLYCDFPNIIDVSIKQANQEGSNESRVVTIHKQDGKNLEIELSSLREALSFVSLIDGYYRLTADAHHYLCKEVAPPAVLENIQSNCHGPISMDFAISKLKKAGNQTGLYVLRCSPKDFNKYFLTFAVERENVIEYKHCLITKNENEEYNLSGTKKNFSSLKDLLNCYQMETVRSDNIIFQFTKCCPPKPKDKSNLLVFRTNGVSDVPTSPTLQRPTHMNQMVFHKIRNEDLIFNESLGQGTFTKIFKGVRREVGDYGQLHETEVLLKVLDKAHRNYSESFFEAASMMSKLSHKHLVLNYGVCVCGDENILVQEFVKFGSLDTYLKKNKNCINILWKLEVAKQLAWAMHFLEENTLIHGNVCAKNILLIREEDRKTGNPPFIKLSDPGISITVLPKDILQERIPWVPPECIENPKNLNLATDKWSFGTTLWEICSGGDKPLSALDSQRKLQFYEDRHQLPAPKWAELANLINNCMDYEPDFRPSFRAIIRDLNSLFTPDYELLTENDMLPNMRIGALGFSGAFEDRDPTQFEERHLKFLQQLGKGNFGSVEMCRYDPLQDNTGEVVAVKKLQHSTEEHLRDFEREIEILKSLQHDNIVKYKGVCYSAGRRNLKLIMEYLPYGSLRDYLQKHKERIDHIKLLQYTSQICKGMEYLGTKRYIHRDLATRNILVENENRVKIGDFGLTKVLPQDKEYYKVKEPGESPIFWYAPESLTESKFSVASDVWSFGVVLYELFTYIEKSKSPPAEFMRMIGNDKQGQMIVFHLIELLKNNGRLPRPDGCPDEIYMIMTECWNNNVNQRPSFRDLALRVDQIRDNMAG
Chain of Non-receptor tyrosine-protein kinase TYK2 (P29597 whole entry): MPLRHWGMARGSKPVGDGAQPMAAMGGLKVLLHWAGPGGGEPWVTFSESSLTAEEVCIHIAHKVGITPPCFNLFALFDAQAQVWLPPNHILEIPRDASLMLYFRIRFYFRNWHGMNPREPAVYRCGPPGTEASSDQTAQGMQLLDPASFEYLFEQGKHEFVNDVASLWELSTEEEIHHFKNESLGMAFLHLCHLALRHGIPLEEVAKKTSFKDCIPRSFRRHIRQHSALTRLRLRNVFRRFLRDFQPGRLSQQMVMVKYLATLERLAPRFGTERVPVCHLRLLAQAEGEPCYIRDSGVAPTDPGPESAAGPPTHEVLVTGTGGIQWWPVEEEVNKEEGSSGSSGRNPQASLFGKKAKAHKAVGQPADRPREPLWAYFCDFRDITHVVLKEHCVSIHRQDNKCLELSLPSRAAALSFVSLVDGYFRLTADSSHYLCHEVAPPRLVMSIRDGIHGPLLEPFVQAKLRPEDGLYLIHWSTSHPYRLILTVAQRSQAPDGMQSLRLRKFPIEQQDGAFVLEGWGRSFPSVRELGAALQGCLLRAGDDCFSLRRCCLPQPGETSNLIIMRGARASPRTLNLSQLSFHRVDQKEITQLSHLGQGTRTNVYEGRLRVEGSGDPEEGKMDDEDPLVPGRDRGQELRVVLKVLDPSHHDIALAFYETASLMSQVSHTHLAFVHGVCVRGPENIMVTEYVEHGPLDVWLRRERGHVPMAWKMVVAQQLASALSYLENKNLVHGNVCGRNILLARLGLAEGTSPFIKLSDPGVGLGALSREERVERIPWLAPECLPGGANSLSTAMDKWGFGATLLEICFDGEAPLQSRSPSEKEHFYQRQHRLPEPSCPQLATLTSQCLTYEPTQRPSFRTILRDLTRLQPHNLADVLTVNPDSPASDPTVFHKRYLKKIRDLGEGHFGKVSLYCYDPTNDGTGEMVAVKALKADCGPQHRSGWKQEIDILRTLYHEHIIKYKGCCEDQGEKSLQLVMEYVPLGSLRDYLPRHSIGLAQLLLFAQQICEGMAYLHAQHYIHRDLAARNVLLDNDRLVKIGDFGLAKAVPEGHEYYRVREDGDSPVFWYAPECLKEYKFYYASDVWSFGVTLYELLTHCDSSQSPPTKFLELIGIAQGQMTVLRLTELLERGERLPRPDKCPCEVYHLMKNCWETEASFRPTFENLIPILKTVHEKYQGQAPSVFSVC

For the compound `Cc1cnc(Nc2ccc3c(c2)CCN(CCCO)C3)nc1-c1cnn(C(C)C)c1`, the Ratio IC50 in test [1] is 3.4. The Activity in test [2] was 62%.
With `CC(C)n1cc(-c2nc(Nc3ccc4c(c3)CCN(C(=O)CO)C4)ncc2F)cn1`, the Ratio IC50 in [1] is 0.79. For the same compound, the Activity in test [2] was found to be 39%.
For the compound `Cc1cnc(Nc2ccc3c(c2)CCN(CC#N)C3)nc1-c1cnn(C(C)C)c1`, the IC50 was determined as 0.108 µM in [3]; 0.007 µM in test [4]; 0.056 µM in [6]; 0.043 µM in [8]; 0.054 µM in [9]. Moreover, the Ratio IC50 in test [5] came out at 7.7; in [7], 15.4; in test [1], 8.8; in test [10] it was 8; in [11], 6.1. In addition, the Activity in test [2] turned out to be 50%.
In the case of `Cc1cnc(Nc2ccc3c(c2)CN(CC#N)CC3)nc1-c1cnn(C(C)C)c1`, the Ratio IC50 in [1] was 4.5. For the same compound, the Activity in [2] is 51%.
Regarding `CC(C)n1cc(-c2nc(Nc3ccc4c(c3)CCN(CCCCCO)C4)ncc2F)cn1`, in test [1], the Ratio IC50 came to 0.72. In addition, the Activity in [2] is 42%.
The like results for `Cc1cnc(Nc2ccc3c(c2)CCN(C(=O)Nc2cccc(Cl)c2)C3)nc1-c1cnn(C(C)C)c1` were, in that order, 0.6 and 99%.
Consider `CCNC(=O)N1CCc2cc(Nc3ncc(C)c(-c4cnn(C(C)C)c4)n3)ccc2C1`, for which the Ratio IC50 in test [1] is 0.45.
As to `CCN(CC)C(=O)/C=C/CN1CCc2cc(Nc3ncc(C)c(-c4cnn(C(C)C)c4)n3)ccc2C1`, the Ratio IC50 in test [1] is 2. Also, in test [2], the Activity is 66%.
In the case of `COC(=O)/C=C/CN1CCc2ccc(Nc3ncc(C)c(-c4cnn(C(C)C)c4)n3)cc2C1`, in test [1], the Ratio IC50 is 6. Also, the Activity in test [2] turned out to be 43%.
As to `C=CCN1CCc2cc(Nc3ncc(C)c(-c4cnn(C(C)C)c4)n3)ccc2C1`, the Ratio IC50 in test [1] stood at 3. The Activity in test [2] was determined as 67%.
In the case of `CCOCCN1CCc2cc(Nc3ncc(C)c(-c4cnn(C(C)C)c4)n3)ccc2C1`, the Ratio IC50 in test [1] was found to be 1.7. Besides, the Activity in [2] was 40%.
Consider `Cc1cnc(Nc2ccc3c(c2)CN(C(=O)/C=C/C(=O)c2ccccc2)CC3)nc1-c1cnn(C(C)C)c1`, for which the half-maximal inhibitory concentration (IC50) came out at 0.016 µM in test [3]; 0.002 µM in test [4]; 0.052 µM in test [6]; 0.03 µM in test [8]; 0.089 µM in test [9]. Moreover, the Ratio IC50 in [5] turned out to be 44.5; in test [7], 8; in [1] it was 12.5; in test [10], 26; in test [11], 15. Besides, the Activity in test [2] worked out at 47%.
With `CCCNC(=O)N1CCc2cc(Nc3ncc(C)c(-c4cnn(C(C)C)c4)n3)ccc2C1`, in test [1], the Ratio IC50 is 1.2.
On to `Cc1cnc(Nc2ccc3c(c2)CCN(C(=O)CCCN(C)C)C3)nc1-c1cnn(C(C)C)c1`, for which the Ratio IC50 in test [1] worked out at 1.5.
Regarding `Cc1cnc(Nc2ccc3c(c2)CCN(C(=O)/C=C/C(=O)c2ccccc2)C3)nc1-c1cnn(C(C)C)c1`, the IC50 turned out to be 0.034 µM in test [3]; 0.01 µM in test [4]; 0.079 µM in test [6]; 0.047 µM in [8]; 0.12 µM in [9]. The Ratio IC50 came to 12 in test [5]; 3.4 in [7]; 8.8 in test [1]; 7.9 in test [10]; 4.7 in test [11]. Moreover, the Activity in test [2] came to 41%.
In the case of `Cc1cnc(Nc2ccc3c(c2)CCN(CCC#N)C3)nc1-c1cnn(C(C)C)c1`, the Ratio IC50 in [1] worked out at 1.2. For the same compound, in test [2], the Activity came to 35%.
With `CC(C)n1cc(-c2nc(Nc3ccc4c(c3)CCN(CCCCO)C4)ncc2F)cn1`, the Ratio IC50 in [1] amounted to 0.75. Besides, in test [2], the Activity was found to be 39%.
In the case of `CC(C)n1cc(-c2nc(Nc3ccc4c(c3)CCN(CCO)C4)ncc2F)cn1`, the Ratio IC50 in [1] came to 0.84. Also, in test [2], the Activity turned out to be 43%.
For the compound `Cc1cnc(Nc2ccc3c(c2)CCN(CCCCO)C3)nc1-c1cnn(C(C)C)c1`, the Ratio IC50 in test [1] was determined as 3.3. The Activity in [2] is 56%.
In the case of `COC(=O)CCCN1CCc2cc(Nc3ncc(C)c(-c4cnn(C(C)C)c4)n3)ccc2C1`, the Ratio IC50 in test [1] is 1.2.
With `Cc1cnc(Nc2ccc3c(c2)CN(CCO)C3)nc1-c1cnn(C(C)C)c1`, the Activity in [2] is 67%.
With `Cc1cnc(Nc2ccc3c(c2)CCN(C/C=C/C(=O)NCCN2CCCCC2)C3)nc1-c1cnn(C(C)C)c1`, the Ratio IC50 in test [1] came out at 3.8.
Take `Cc1cnc(Nc2ccc3c(c2)CN(C(=O)/C=C/CN(C)C)CC3)nc1-c1cnn(C(C)C)c1`: the IC50 in [3] was 0.023 µM; in test [4] it was 0.009 µM; in test [6], 0.045 µM; in test [8], 0.091 µM; in test [9] it was 0.147 µM. Also, the Ratio IC50 was determined as 16 in [5]; 2.5 in test [7]; 29.8 in test [1]; 5 in test [10]; 10 in [11]. In test [2], the Activity turned out to be 52%.
For `CC#CCN1CCc2cc(Nc3ncc(C)c(-c4cnn(C(C)C)c4)n3)ccc2C1`, the Ratio IC50 in test [1] was found to be 2. Also, the Activity in test [2] is 85%.
Regarding `Cc1cnc(Nc2ccc3c(c2)CCN(C/C=C/C(=O)NC(C)(C)C)C3)nc1-c1cnn(C(C)C)c1`, the Ratio IC50 in test [1] amounted to 1.7.
For `Cc1cnc(Nc2ccc3c(c2)CCN3CCO)nc1-c1cnn(C(C)C)c1`, the Ratio IC50 in [1] amounted to 0.54. Further, the Activity in test [2] is 79%.
As to `Cc1cnc(Nc2ccc3c(c2)CCN(CCCCCO)C3)nc1-c1cnn(C(C)C)c1`, the Activity in test [2] was 63%.
For `CCCCN1CCc2cc(Nc3ncc(C)c(-c4cnn(C(C)C)c4)n3)ccc2C1`, the Ratio IC50 in test [1] came to 1.3. For the same compound, in test [2], the Activity was 57%.
On to `C#CCN1CCc2cc(Nc3ncc(C)c(-c4cnn(C(C)C)c4)n3)ccc2C1`, for which, in test [2], the Activity is 79%.
With `Cc1cnc(Nc2ccc3c(n2)CCN(CCCO)C3)nc1-c1cnn(C(C)C)c1`, in test [1], the Ratio IC50 came out at 1.1. In addition, in test [2], the Activity came out at 88%.
As to `CC(C)n1cc(-c2nc(Nc3ccc4c(c3)CCN(CCCO)C4)ncc2F)cn1`, the Ratio IC50 in test [1] came out at 1.4. Also, in [2], the Activity is 44%.
With `Cc1cnc(Nc2cc3c(cc2F)CN(CCO)CC3)nc1-c1cnn(C(C)C)c1`, the Ratio IC50 in test [1] is over 1.2.
Take `Cc1cnc(Nc2ccc3c(c2)CCN(CCO)C3)nc1-c1cnn(C(C)C)c1`: the Ratio IC50 in test [1] was found to be 3.9. The Activity in test [2] was found to be 66%.
On to `Cc1ccc(C(=O)CCC(=O)N2CCc3cc(Nc4ncc(C)c(-c5cnn(C(C)C)c5)n4)ccc3C2)cc1`, for which the Ratio IC50 in test [1] is 1.7.
For the compound `Cc1cnc(Nc2ccc3c(c2)CCN(C/C=C/C(=O)O)C3)nc1-c1cnn(C(C)C)c1`, the Ratio IC50 in [1] was 2.5. Moreover, in test [2], the Activity is 78%.

For the origin of these results see ChEMBL document CHEMBL4715869, “N-(Pyrimidin-2-yl)-1,2,3,4-tetrahydroisoquinolin-6-amine Derivatives as Selective Janus Kinase 2 Inhibitors for the Treatment of Myeloproliferative Neoplasms” (J Med Chem, 2020).
